Measurements taken from US7939532B2, “Heterocyclyl pyridyl sulfonamide derivatives, their manufacture and use as pharmaceutical agents” (Hoffmann-La Roche Inc., priority 2006, dated 2011).
Counter-ions that a name gives are not always drawn.

Test system: HCT 116 cells (human colon carcinoma, ATCC-No. CCl-247)
Experiment: CellTiter-Glo Luminescent Cell Viability Assay in HCT 116 cells
Format: cell-based
Details: HCT 116 cell viability, CellTiter-Glo (ATP luminescence), 5 days (120 h) incubation, 10 concentrations 30 μM to 0.0015 μM, triplicate
Source text: CellTiter-Glo™ Assay in HCT 116 Cells
The CellTiter-Glo™ Luminescent Cell Viability Assay (Promega) is a homogeneous method of determining the number of viable cells in culture based on quantitation of the ATP present, which signals the presence of metabolically active cells.
HCT 116 cells (human colon carcinoma, ATCC-No. CCl-247) were cultivated in RPMI 1640 medium with GlutaMAX™ I (Invitrogen, Cat-No. 61870-010), 5% Fetal Calf Serum (FCS, Sigma Cat-No. F4135 (FBS)); 100 Units/ml penicillin/100 μg/ml streptomycin (=Pen/Strep from Invitrogen Cat. No. 15140). For the assay the cells were seeded in 384 well plates, 1000 cells per well, in the same medium. The next day the test compounds were added in various concentrations ranging from 30 μM to 0.0015 μM (10 concentrations, 1:3 diluted). After 5 days the CellTiter-Glo™ assay was done according to the instructions of the manufacturer (CellTiter-Glo™ Luminescent Cell Viability Assay, from Promega). In brief the cell-plate was equilibrated to room temperature for approximately 30 minutes and than the CellTiter-Glo™ reagent was added. The contents were carefully mixed for 15 minutes to induce cell lysis. After 45 minutes the luminescent signal was measured in Victor 2, (scanning multiwell spectrophotometer, Wallac).
• Medium: RPMI 1640 with GlutaMAX™ I (Invitrogen, Cat-Nr. 61870), 5% FCS (Sigma Cat.-No. F4135), Pen/Strep (Invitrogen, Cat No. 15140). • HCT116 (ATCC-No. CCl-247): 1000 cells in 60 μl per well of 384 well plate (Greiner 781098, μClear-plate white) • After seeding incubate plates 24 h at 37° C., 5% CO2 2nd. Day: Induction (Treatment with Compounds, 10 Concentrations):
In order to achieve a final concentration of 30 μM as highest concentration 3.5 μl of 10 mM compound stock solution were added directly to 163 μl media. Then step e) of the dilution procedure described below, was followed.

| Compound | IC50 [µM] |
| --- | --- |
| O=C(NS(=O)(=O)c1ccc(N2CCN(c3ccccn3)CC2)nc1)c1ccc(Cl)cc1Cl [Example 1-1, 6-(4-Pyridin-2-yl-piperazin-1-yl)-pyridine-3-sulfonic acid 2,4-dichloro-benzoylamide; ammonium salt] | 3.35 |
| O=C(NS(=O)(=O)c1ccc(N2CCC3(CC2)OCCCO3)nc1)c1ccc(Cl)cc1C(F)(F)F [Example 1-2, 6-(1,5-Dioxa-9-aza-spiro[5.5]undec-9-yl)-pyridine-3-sulfonic acid 4-chloro-2-trifluoromethyl-benzoylamide; ammonium salt] | 4.28 |
| Cc1cccc(N2CCN(c3ccc(S(=O)(=O)NC(=O)c4ccc(F)cc4C(F)(F)F)cn3)CC2)c1 [Example 1-3, 6-(4-m-Tolyl-piperazin-1-yl)-pyridine-3-sulfonic acid 4-fluoro-2-trifluoromethyl-benzoylamide; sodium salt] | 1 to 10 |
| COc1cc(Cl)ccc1C(=O)NS(=O)(=O)c1ccc(N2CCN(c3ccccc3)CC2)nc1 [Example 1-4, 6-(4-Phenyl-piperazin-1-yl)-pyridine-3-sulfonic acid 4-chloro-2-methoxy-benzoylamide] | 1 to 10 |
| O=C(NS(=O)(=O)c1ccc(N2CCN(c3ccccn3)CC2)nc1)c1ccc(F)cc1Cl [Example 1-5, 6-(4-Pyridin-2-yl-piperazin-1-yl)-pyridine-3-sulfonic acid 2-chloro-4-fluoro-benzoylamide; ammonium salt] | 1 to 10 |
| O=C(NS(=O)(=O)c1ccc(N2CCN(c3ccccn3)CC2)nc1)c1ccc(F)cc1C(F)(F)F [Example 1-6, 6-(4-Pyridin-2-yl-piperazin-1-yl)-pyridine-3-sulfonic acid 4-fluoro-2-trifluoromethyl-benzoylamide; ammonium salt] | 1 to 10 |
| O=C(NS(=O)(=O)c1ccc(N2CCN(c3ccc(F)cc3)CC2)nc1)c1ccc(F)cc1C(F)(F)F [Example 1-7, 6-[4-(4-Fluoro-phenyl)-piperazin-1-yl]-pyridine-3-sulfonic acid 4-fluoro-2-trifluoromethyl-benzoylamide; ammonium salt] | 1 to 10 |
| COc1cc(Cl)ccc1C(=O)NS(=O)(=O)c1ccc(N2CCN(c3ccccc3OC)CC2)nc1 [Example 1-8, 6-[4-(2-Methoxy-phenyl)-piperazin-1-yl]-pyridine-3-sulfonic acid 4-chloro-2-methoxy-benzoylamide; ammonium salt] | 1 to 10 |
| COc1ccc(N2CCN(c3ccc(S(=O)(=O)NC(=O)c4ccc(Cl)cc4C(F)(F)F)cn3)CC2)cc1 [Example 1-9, 6-[4-(4-Methoxy-phenyl)-piperazin-1-yl]-pyridine-3-sulfonic acid 4-chloro-2-trifluoromethyl-benzoylamide] | 1 to 10 |
| O=C(NS(=O)(=O)c1ccc(N2CCN(c3ccccc3)CC2)nc1)c1ccc(F)cc1Cl [Example 1-10, 6-(4-Phenyl-piperazin-1-yl)-pyridine-3-sulfonic acid 2-chloro-4-fluoro-benzoylamide] | 1 to 10 |
| COc1cc(Cl)ccc1C(=O)NS(=O)(=O)c1ccc(N2CCN(c3ccc(F)cc3)CC2)nc1 [Example 1-11, 6-[4-(4-Fluoro-phenyl)-piperazin-1-yl]-pyridine-3-sulfonic acid 4-chloro-2-methoxy-benzoylamide] | 1.25 |
| COc1cc(Cl)ccc1C(=O)NS(=O)(=O)c1ccc(N2CCC3(CC2)OCCCO3)nc1 [Example 1-12, 6-(1,5-Dioxa-9-aza-spiro[5.5]undec-9-yl)-pyridine-3-sulfonic acid 4-chloro-2-methoxy-benzoylamide] | 1 to 10 |
| COc1ccccc1N1CCN(c2ccc(S(=O)(=O)NC(=O)c3ccc(Cl)cc3C(F)(F)F)cn2)CC1 [Example 1-13, 6-[4-(2-Methoxy-phenyl)-piperazin-1-yl]-pyridine-3-sulfonic acid 4-chloro-2-trifluoromethyl-benzoylamide] | 1 to 10 |
| COc1ccccc1N1CCN(c2ccc(S(=O)(=O)NC(=O)c3ccc(F)cc3Cl)cn2)CC1 [Example 1-14, 6-[4-(2-Methoxy-phenyl)-piperazin-1-yl]-pyridine-3-sulfonic acid 2-chloro-4-fluoro-benzoylamide; sodium salt] | 1 to 10 |

Further lines, results first:

| IC50 [µM] | Compound |
| --- | --- |
| 1 to 10 | O=C(NS(=O)(=O)c1ccc(N2CCN(c3ccccc3)CC2)nc1)c1ccc(Cl)cc1Cl [Example 1-15, 6-(4-Phenyl-piperazin-1-yl)-pyridine-3-sulfonic acid 2,4-dichloro-benzoylamide; sodium salt] |
| 1 to 10 | O=C(NS(=O)(=O)c1ccc(N2CCN(c3ccc(F)cc3)CC2)nc1)c1ccc(Cl)cc1Cl [Example 1-16, 6-[4-(4-Fluoro-phenyl)-piperazin-1-yl]-pyridine-3-sulfonic acid 2,4-dichloro-benzoylamide; sodium salt] |
| 1 to 10 | O=C(NS(=O)(=O)c1ccc(N2CCN(c3ccc(F)cc3)CC2)nc1)c1ccc(F)cc1Cl [Example 1-17, 6-[4-(4-Fluoro-phenyl)-piperazin-1-yl]-pyridine-3-sulfonic acid 2-chloro-4-fluoro-benzoylamide; sodium salt] |
| 1 to 10 | O=C(NS(=O)(=O)c1ccc(N2CCN(c3ccccc3)CC2)nc1)c1ccc(F)cc1C(F)(F)F [Example 1-18, 6-(4-Phenyl-piperazin-1-yl)-pyridine-3-sulfonic acid 4-fluoro-2-trifluoromethyl-benzoylamide; sodium salt] |
| 1 to 10 | O=C(NS(=O)(=O)c1ccc(N2CCN(c3ccccc3F)CC2)nc1)c1ccc(F)cc1C(F)(F)F [Example 1-19, 6-[4-(2-Fluoro-phenyl)-piperazin-1-yl]-pyridine-3-sulfonic acid 4-fluoro-2-trifluoromethyl-benzoylamide; sodium salt] |
| 1 to 10 | O=C(NS(=O)(=O)c1ccc(N2CCN(c3ccc(F)cc3F)CC2)nc1)c1ccc(F)cc1C(F)(F)F [Example 1-20, 6-[4-(2,4-Difluoro-phenyl)-piperazin-1-yl]-pyridine-3-sulfonic acid 4-fluoro-2-trifluoromethyl-benzoylamide; sodium salt] |
